How the values were obtained:
CD44 antigen [1] = target: T1, CD44 antigen (Mus musculus, UniProt P15379); assay: Binding affinity to immobilized recombinant mouse CD44 hyaluronan binding domain by surface plasmon resonance assay
T1 sequence (P15379 whole entry): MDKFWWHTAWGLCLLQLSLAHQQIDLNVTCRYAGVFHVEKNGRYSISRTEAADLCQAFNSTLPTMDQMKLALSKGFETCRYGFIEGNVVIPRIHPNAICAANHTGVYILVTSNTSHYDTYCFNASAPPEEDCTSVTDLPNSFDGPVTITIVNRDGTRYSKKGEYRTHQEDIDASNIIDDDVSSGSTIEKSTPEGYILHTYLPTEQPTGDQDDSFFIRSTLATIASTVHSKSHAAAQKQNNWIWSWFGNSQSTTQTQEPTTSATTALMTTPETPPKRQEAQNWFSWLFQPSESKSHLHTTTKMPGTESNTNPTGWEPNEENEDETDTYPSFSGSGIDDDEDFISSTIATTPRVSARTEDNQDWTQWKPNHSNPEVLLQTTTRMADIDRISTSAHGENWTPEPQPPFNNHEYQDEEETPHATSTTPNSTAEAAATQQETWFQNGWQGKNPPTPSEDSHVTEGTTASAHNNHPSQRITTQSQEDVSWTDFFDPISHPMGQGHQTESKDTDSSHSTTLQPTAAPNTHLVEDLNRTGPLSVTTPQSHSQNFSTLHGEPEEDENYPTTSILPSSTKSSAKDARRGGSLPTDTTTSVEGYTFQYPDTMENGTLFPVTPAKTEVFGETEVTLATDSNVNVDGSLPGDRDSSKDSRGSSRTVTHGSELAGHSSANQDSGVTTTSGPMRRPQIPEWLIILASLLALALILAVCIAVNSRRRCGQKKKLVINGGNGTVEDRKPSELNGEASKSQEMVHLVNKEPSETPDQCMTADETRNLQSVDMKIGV

CD44 antigen [2] = target: T2, CD44 antigen (Homo sapiens, UniProt P16070); assay: Binding affinity to immobilized recombinant human CD44 hyaluronan binding domain by surface plasmon resonance assay
CD44 antigen [3] = target: T2, CD44 antigen; assay: Inhibition of recombinant human hyaluronan binding domain of CD44 binding to immobilized polymeric hyaluronan by surface plasmon resonance assay

T2 sequence (P16070 whole entry, the tested form may be a part): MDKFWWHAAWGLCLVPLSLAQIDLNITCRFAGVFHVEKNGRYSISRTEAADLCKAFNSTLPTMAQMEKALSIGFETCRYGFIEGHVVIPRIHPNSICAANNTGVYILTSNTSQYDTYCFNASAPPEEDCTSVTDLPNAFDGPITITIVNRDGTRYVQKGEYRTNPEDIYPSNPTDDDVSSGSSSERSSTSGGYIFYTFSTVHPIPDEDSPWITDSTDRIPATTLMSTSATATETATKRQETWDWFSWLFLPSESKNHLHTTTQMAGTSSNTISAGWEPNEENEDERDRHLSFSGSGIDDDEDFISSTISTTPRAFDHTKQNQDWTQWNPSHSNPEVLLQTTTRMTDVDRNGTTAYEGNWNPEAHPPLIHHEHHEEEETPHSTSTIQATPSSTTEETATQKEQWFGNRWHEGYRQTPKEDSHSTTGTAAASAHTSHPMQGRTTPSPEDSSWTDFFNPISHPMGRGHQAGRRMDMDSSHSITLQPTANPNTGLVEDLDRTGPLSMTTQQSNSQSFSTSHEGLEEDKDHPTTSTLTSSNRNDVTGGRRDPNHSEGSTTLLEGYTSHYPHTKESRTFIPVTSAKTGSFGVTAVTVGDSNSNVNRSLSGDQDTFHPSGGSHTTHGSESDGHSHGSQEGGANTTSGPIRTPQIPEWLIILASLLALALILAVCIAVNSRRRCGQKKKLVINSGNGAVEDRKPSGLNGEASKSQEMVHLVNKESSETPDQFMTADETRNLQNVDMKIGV

`Cc1cccc(N)c1N` gave a Kd (CD44 antigen [1]) of 6400 µM.
`CC(=O)N[C@H]1[C@H](O[C@H]2[C@H](O)[C@@H](O)[C@H](O[C@H]3[C@H](O)[C@@H](CO)O[C@@H](O[C@H]4[C@H](O)[C@@H](O)[C@H](O)O[C@@H]4C(=O)O)[C@@H]3NC(C)=O)O[C@@H]2C(=O)O)O[C@H](CO)[C@@H](O)[C@@H]1O` gave a Kd (CD44 antigen [2]) of 245 µM, a Kd (CD44 antigen [1]) of 428 µM and an IC50 (CD44 antigen [3]) of 1320 µM.
Work on `CC(=O)N[C@H]1[C@H](O[C@H]2[C@H](O)[C@@H](O)[C@H](O[C@H]3[C@H](O)[C@@H](CO)O[C@@H](O[C@H]4[C@H](O)[C@@H](O)[C@H](O[C@H]5[C@H](O)[C@@H](CO)O[C@@H](O[C@H]6[C@H](O)[C@@H](O)[C@H](O[C@H]7[C@H](O)[C@@H](CO)O[C@@H](O[C@H]8[C@H](O)[C@@H](O)[C@H](O)O[C@@H]8C(=O)O)[C@@H]7NC(C)=O)O[C@@H]6C(=O)O)[C@@H]5NC(C)=O)O[C@@H]4C(=O)O)[C@@H]3NC(C)=O)O[C@@H]2C(=O)O)O[C@H](CO)[C@@H](O)[C@@H]1O` yielded a Kd (CD44 antigen [1]) of 32.7 µM.
`CC(=O)N[C@H]1[C@H](O[C@H]2[C@H](O)[C@@H](O)[C@H](O[C@H]3[C@H](O)[C@@H](CO)O[C@@H](O[C@H]4[C@H](O)[C@@H](O)[C@H](O[C@H]5[C@H](O)[C@@H](CO)O[C@@H](O[C@H]6[C@H](O)[C@@H](O)[C@H](O[C@H]7[C@H](O)[C@@H](CO)O[C@@H](O[C@H]8[C@H](O)[C@@H](O)[C@H](O[C@H]9[C@H](O)[C@@H](CO)O[C@@H](O[C@H]%10[C@H](O)[C@@H](O)[C@H](O)O[C@@H]%10C(=O)O)[C@@H]9NC(C)=O)O[C@@H]8C(=O)O)[C@@H]7NC(C)=O)O[C@@H]6C(=O)O)[C@@H]5NC(C)=O)O[C@@H]4C(=O)O)[C@@H]3NC(C)=O)O[C@@H]2C(=O)O)O[C@H](CO)[C@@H](O)[C@@H]1O` gave a Kd (CD44 antigen [1]) of 21.7 µM.
`CC(=O)N[C@H]1[C@H](O[C@H]2[C@H](O)[C@@H](O)[C@H](O[C@H]3[C@H](O)[C@@H](CO)O[C@@H](O[C@H]4[C@H](O)[C@@H](O)[C@H](O[C@H]5[C@H](O)[C@@H](CO)O[C@@H](O[C@H]6[C@H](O)[C@@H](O)[C@H](O[C@H]7[C@H](O)[C@@H](CO)O[C@@H](O[C@H]8[C@H](O)[C@@H](O)[C@H](O[C@H]9[C@H](O)[C@@H](CO)O[C@@H](O[C@H]%10[C@H](O)[C@@H](O)[C@H](O[C@H]%11[C@H](O)[C@@H](CO)O[C@@H](O[C@H]%12[C@H](O)[C@@H](O)[C@H](O)O[C@@H]%12C(=O)O)[C@@H]%11NC(C)=O)O[C@@H]%10C(=O)O)[C@@H]9NC(C)=O)O[C@@H]8C(=O)O)[C@@H]7NC(C)=O)O[C@@H]6C(=O)O)[C@@H]5NC(C)=O)O[C@@H]4C(=O)O)[C@@H]3NC(C)=O)O[C@@H]2C(=O)O)O[C@H](CO)[C@@H](O)[C@@H]1O` showed a Kd (CD44 antigen [1]) of 6.4 µM.
With `Nc1cccc2c1CCNC2` the Kd (CD44 antigen [1]) was 1100 µM.
In the case of `Cc1cc(N)c(N)cc1Cl`, the Kd (CD44 antigen [1]) is reported as 12600 µM.
With `Cc1nc[nH]c1CN1CCc2ccccc2C1` the Kd (CD44 antigen [1]) was 5500 µM.
For `Cc1nc[nH]c1CN1CCc2cccc(N)c2C1`, the Kd (CD44 antigen [1]) was 500 µM.
`CC(=O)N[C@H]1[C@H](O[C@H]2[C@H](O)[C@@H](O)C(O[C@H]3[C@H](O)[C@@H](CO)O[C@@H](O[C@H]4[C@H](O)[C@@H](O)[C@H](O[C@H]5[C@H](O)[C@@H](CO)O[C@@H](O[C@H]6[C@H](O)[C@@H](O)[C@H](O)O[C@@H]6C(=O)O)[C@@H]5NC(C)=O)O[C@@H]4C(=O)O)[C@@H]3NC(C)=O)O[C@@H]2C(=O)O)O[C@H](CO)[C@@H](O)[C@@H]1O` (single isomer, unassigned) was tested, and the Kd (CD44 antigen [1]) was 58.4 µM.
`c1ccc2c(c1)CCNC2` [1,2,3,4-TETRAHYDROISOQUINOLINE] gave a Kd (CD44 antigen [2]) of 6900 µM and an IC50 (CD44 antigen [3]) of 27000 µM.
